Measurements taken from patent publication US10190166B2, “Methods for identifying dendritic cell subsets, for determining if a patient is developing a regulatory or an effector immune response, and for determining response to immunotherapy” (STALLERGENES, priority 2011, dated 2019).
Several values for one entry are separate records, joined by “and”; a condition that tells them apart may be missing. Identical values can stand only once.

Experiments:
[1] = tested on: monocyte-derived DCs; test: Label free MS analysis of DC subtypes; assay type: cell-based, human
Experimental: Label-free MS of digested total protein lysates (solubilized in buffer A as described above), was conducted to compare proteomes of control, effector and regulatory DC subsets. Briefly, a common ultrafiltration device was used for detergent removal (CHAPS) to enable subsequent proteome analysis (Filter-aided sample preparation, FASP). 100 μg of proteins were mixed with urea-containing buffers in the filter unit (Amicon Ultra-0.5 ml, Ultracel-10 kDa Membrane, Millipore, Molsheim, France), reduced with 20 mM DTT, alkylated with 50 mM iodoacetamide, digested with Lys-C (37° C., 5 h, ratio 1/50, Sigma-Aldrich) and then with trypsin (37° C., overnight, ratio 1/50). After digestion, peptides were desalted using RPC18 Dynal magnetic beads (Invitrogen), acidified with FA and 1.5 to 2 μg of tryptic peptides were analyzed by nanoLC-MS or nanoLC-MS/MS.
In MS mode, full scan MS spectra were acquired from m/z 280 to 1500 (1 MS spectrum of 0.8 s) during 270 min. Ion intensities recorded in LC-MS data were analyzed using Progenesis LC-MS v3.1 software (Non Linear Dynamics) to provide reliable measurements of peptide (feature) abundance across samples. Internal calibration was performed by enabling the lock mass option in MS mode (minimum intensity>200 and mass±0.015 Da). […] Targeted nanoLC-MS/MS were accomplished by means of an inclusion mass list in the MS instrument method. […] Identification parameters were identical to those described for 2D-DIGE analysis. […] For accurate mass measurements, the lock mass option was enabled in MS and MS/MS mode.

[2] = tested on: monocyte-derived DCs; test: Western blot analysis of marker proteins in treated DCs; assay type: cell-based, human
Experimental: NuPAGE-Western blotting was carried out according to standard procedures (NuPAGE technical guide, Invitrogen). […] H00004599-[…], 1/500) from Abnova (Taipei, Taiwan), anti-CD71 (Cat. no. […] The rabbit polyclonal serum raised against GILZ was previously described (see […], et al. […] Peroxidase-conjugated goat anti-mouse and anti-rabbit secondary antibodies were both obtained from Jackson Immunoresearch Laboratories (Sufflok, England), and the chemiluminescence detection kit was from Pierce (SuperSignal West Pico Chemiluminescent Substrate, Fisher Scientific, Illkirch, France). Western blot signals were acquired with a CCD camera (Fusion FX7, Vilber-Lourmat, Marnes La Vallée, France) and band volume was quantified using the Bio-1D software (Vilber-Lourmat). β-actin or GAPDH were used as loading controls.

[3] = tested on: monocyte-derived DCs; test: Quantitative real-time PCR of marker genes in treated DCs
Experimental: Total RNA was extracted from treated DCs or PBMCs using RNeasy mini kits (Qiagen, Courtaboeuf, France) and cDNAs were obtained using TaqMan reverse transcription reagents (Applied Biosystems, Les Ulis, France) as per the manufacturer's instructions. Messenger RNA expression was evaluated by quantitative PCR on a 7900HT real-time PCR system (Applied Biosystems) with predesigned Taqman gene expression assays and reagents, according to the manufacturer's instructions. Expression of the following genes was assessed in DCs or PBMCs: GILZ (Hs00608272_m1), IDO (Hs00158032_m1), RALDH-1 (Hs00167445_m1), RALDH-2 (Hs00180254_m1), ANXA1 (Hs00167549_m1), CLIC2 (Hs01574555_m)1, FKBP5 (Hs01561001_m1), F13A (Hs00173388_m1), GPX1 (Hs00829989_gH), IMDH2 (Hs00168418_m1), OSF1 (Hs00273458_m1), TPP1 (Hs00166099_m1), C1QA (Hs00381122_m1), C1QB (Hs00608019_m1), C1QC (Hs00757779_m1), CATB (Hs00947433_m1), CATC (Hs00175188_m1), STAB1 (Hs01109068_m1), MRC1 (Hs00267207_m1), CD71 (Hs00951083_m1), FSCN1 (Hs00979631_g1), IRF4 (Hs01056533_m1), MX1 (Hs00895608_m1), NMES1 (Hs00260902_m1), TRAF1 (Hs01090170_m1). Expression of the following genes was assessed in T cells: IFNg (Hs00989291_m1), IL-4 (Hs00174122_m1), IL-10 (Hs00961622_m1) and IL-17A (Hs00174383_m1). Data were interpreted for each target gene in comparison with endogenous β-actin (Hs99999903_m1) or GAPDH (Hs03929097_g1) as controls. The relative amount of target genes in each sample was calculated in comparison with the calibrator sample using the ΔΔCt The magnitude of gene induction was calculated using the formula 2^−ΔΔCt=2^(−ΔCt for stimulated cells−ΔCt for unstimulated cells).

[4] = tested on: monocyte-derived DCs; test: Cell surface phenotype of treated DCs by flow cytometry; assay type: cell-based, human; details: treatment during the differentiation step
Experimental: For immuno-fluorescence staining, cells were harvested, washed in PBS and incubated for 20 min at 4° C. with the following mAbs: FITC anti-CD14, FITC anti-CD80, PE anti-CD86, PC5 anti-CD83 (Beckman coulter), FITC anti-ILT2, PE anti-ILT4, PC5 anti-ILT3 (R&D systems) or PE-CD11c (Miltenyi Biotec, Paris, France). Cells were stained with corresponding isotype-matched control mAbs and analyzed by flow cytometry.

[5] = tested on: monocyte-derived DCs; test: Anti-inflammatory effect: treated DCs stimulated with LPS 24 h (costimulatory molecules, cytokine secretion); assay type: cell-based, human
[6] = moDCs treated 24 h, one value per peptide
[7] = tolerogenic DC models (model B)

C[C@@H]1C[C@H]2[C@@H]3CCC4=CC(=O)C=C[C@]4(C)[C@@]3(F)[C@@H](O)C[C@]2(C)[C@@]1(O)C(=O)CO [DEX, dexamethasone]
abundance of the m/z 865.70 molecular ion ([1]; moDCs treated 24 h): 16300
Annexin A5 (ANXA5) average normalized abundance [1, 6]: 16940 and 11135
Annexin A6 (ANXA6) average normalized abundance [1, 6]: 3594 and 2084
Chloride intracellular channel protein 2 (CLIC2) average normalized abundance [1, 6]: 3857 and 4306
Complement C1q subcomponent subunit C (C1QC) average normalized abundance [1, 6]: 4308 and 4812 and 2406 and 2725
Cystatin-C (CYTC) average normalized abundance [1, 6]: 7747 and 6610 and 5925
Dipeptidyl peptidase 1 (CATC) average normalized abundance [1, 6]: 9396 and 14732 and 15459
Gelsolin precursor (GELS) average normalized abundance [1, 6]: 5372 and 6735
Integrin alpha-M (ITAM) average normalized abundance [1, 6]: 3832
Interferon-induced GTP-binding protein Mx1 (MX1) average normalized abundance [1, 6]: 1192
Neuroblast differentiation-associated protein AHNAK (AHNK) average normalized abundance [1, 6]: 2629 and 3047
Normal mucosa of esophagus-specific gene 1 protein (NMES1) average normalized abundance [1, 6]: 2947 and 2380
Peptidyl-prolyl cis-trans isomerase A (PPIA) average normalized abundance [1, 6]: 18929 and 14751
Peptidyl-prolyl cis-trans isomerase FKBP5 average normalized abundance [1, 6]: 3640 and 5224 and 4046
Pleckstrin (PLEK) average normalized abundance [1, 6]: 5583 and 4404
Proteasome subunit alpha type-7 (PSA7) average normalized abundance [1, 6]: 3617 and 2212
Sequestosome-1 (SQSTM) average normalized abundance [1, 6]: 1340 and 2411
TNF receptor-associated factor 1 (TRAF1) average normalized abundance [1, 6]: 1732 and 2223
Transferrin receptor protein 1 (TFR1) average normalized abundance [1, 6]: 706 and 1195
WD repeat-containing protein 1 (WDR1) average normalized abundance [1, 6]: 2581 and 2605
C1QC specific peptides increase ([1]; tolerogenic DEX-DCs): ≤ 5 fold
ANXA1 protein level ([2]; DEX-DCs compared with Ctrl-DCs): 1.4 fold
FKBP5 protein induction ([2]; DEX-DCs compared with Ctrl-DCs): 2.6 fold
C1Q protein level ([2]; regulatory DEX-DCs): 12 fold
CATC protein level ([2]; regulatory DEX-DCs): 1.5 fold
MRC1 protein level ([2]; regulatory DEX-DCs): 1.4 fold
STAB1 protein level ([2]; regulatory DEX-DCs): 2.2 fold
C1QA, C1QB and STAB1 gene expression increase ([3]; DEX-DCs compared with Ctrl-DCs): ≤ 12 fold
FKBP5 and F13A gene expression increase ([3]; DEX-DCs relative to Ctrl-DCs): ≤ 15 fold

C=C1/C(=C\C=C2/CCC[C@]3(C)[C@@H]([C@H](C)CCCC(C)(C)O)CC[C@@H]23)C[C@@H](O)C[C@@H]1O [VitD3, 1,25 dihydroxy-vitamin D3]
CD14 expression [4]: CD14^med
ILT3 expression [4]: ILT3^high
IL-6, IL-8 and TNF-α secretion after LPS stimulation [5]: left uninhibited

TGFb: cytokine TGFb added during the DC differentiation step (20 ng/ml)
CD14 expression [4]: CD14^neg
ILT2 expression [4]: ILT2^med
ANXA1, CATC and GILZ proteins [2, 7]: upregulated

B1: IL-10: cytokine IL-10 added during the DC differentiation step (10 ng/ml) (protein, UniProt P22301 19-178, looked up)
Interleukin-10: SPGQGTQSENSCTHFPGNLPNMLRDLRDAFSRVKTFFQMKDQLDNLLLKESLLEDFKGYLGCQALSEMIQFYLEEVMPQAENQDPDIKAHVNSLGENLKTLRLRLRRCHRFLPCENKSKAVEQVKNAFNKLQEKGIYKAMSEFDIFINYIEAYMTMKIRN
CD14 expression [4]: CD14^high
ILT4 expression [4]: ILT4high
F13A, MRC1 and STAB1 proteins ([2]; tolerogenic DC models (model B), DEX 24 h or differentiation): upregulated
CATC gene induction [3, 7]: detected
